Experimental data from patent US10927085B2, “1,2-naphthoquinone based derivative and method of preparing the same” (HUEN Co., Ltd., priority 2013, dated 2021).
Like-named read-outs stand apart in the source and are kept apart here.

Legend:
NQO1 protein = NQO1 protein (Homo sapiens, UniProt P15559); assay: NQO1 activity measurement (cytochrome C reduction); type: biochemical
Method: An enzyme reaction solution included 25 mM Tris/HCl (pH 7.4), 0.14% bovine serum albumin, 200 μM NADH, 77 μM cytochrome C, and 5 ng of NQO1 protein. Enzymatic reaction was initiated by adding NADH and performed at 37° C. In this regard, a reaction rate was measured by observing absorbance, which was increased due to reduction of cytochrome C, at 550 nm for 10 minutes and NQO1 activity was represented as an amount of reduced cytochrome C [nmol cytochrome C reduced/min/μg protein].
Extinction coefficient for cytochrome C:21.1 mmol/L/cm=21.1 μmol/ml/cm

cells = assay: Measurement of lactate change amount within cells; type: cell-based
Method: Cells were treated with 400 μl of 6% PCA, and then collected and extracted. Centrifugation (13,000 rpm, 10 min) was performed. A precipitate was dried using a Speed-Vac and then a weight of dried precipitate was measured. A supernatant was neutralized using 400 μl of 1 M KOH and a final volume thereof was adjusted to 1 ml using 0.33 M KH2PO4/K2HPO4, pH 7.5. Centrifugation (13,000 rpm, 10 min) was performed and the amount of lactate in a supernatant was measured (Megazyme, K-LATE).

[1] = 5 μM, 37° C., absorbance at 550 nm for 10 minutes, 200 μM NADH, 77 μM cytochrome C, 5 ng NQO1 protein

Sequence of NQO1 protein (P15559 whole entry, species assumed): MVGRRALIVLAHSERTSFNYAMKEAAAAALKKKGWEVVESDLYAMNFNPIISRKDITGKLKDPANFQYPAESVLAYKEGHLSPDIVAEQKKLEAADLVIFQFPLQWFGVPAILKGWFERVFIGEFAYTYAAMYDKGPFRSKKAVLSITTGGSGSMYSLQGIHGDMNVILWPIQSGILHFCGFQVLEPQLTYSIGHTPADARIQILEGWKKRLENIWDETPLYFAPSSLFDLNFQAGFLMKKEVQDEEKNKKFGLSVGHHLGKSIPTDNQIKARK

Structure (SMILES) | NQO1 activity (5 μM, [nmol cytochrome C reduced/min/μg protein]) (NQO1 protein; [1]) | Lactate change amount within cells (nmol/mg cell) (cells) | NQO1 activity (5 μM, [nmol cytochrome C reduced/min/μg protein]) (NQO1 protein)
O=C1C(=O)c2nc(-c3ccccc3)oc2-c2ccccc21 [Example 3, 2-phenylnaphtho[2,1-d]oxazole-4,5-dione] | 255.5 nmol cytochrome C reduced/min/μg protein | 8.1 | –
O=C1C(=O)c2nc(CN3CCCCC3)oc2-c2ccccc21 [Example 6, 2-(piperidin-1-ylmethyl)naphtho[2,1-d]oxazole-4,5-dione] | 171.8 nmol cytochrome C reduced/min/μg protein | 6.7 | –
Cc1cc(=O)n(C)c2c1-c1oc(C(C)C)nc1C(=O)C2=O [Example 7, 2-isopropyl-6,9-dimethyloxazolo[5,4-f]quinoline-4,5,7(6H)-trione] | – | 8.0 | 69.8 nmol cytochrome C reduced/min/μg protein
COc1cccc2c1C(=O)C(=O)c1nc(C(C)C)oc1-2 [Example 10, 2-isopropyl-6-methoxynaphtho[2,1-d]oxazole-4,5-dione] | 20.7 nmol cytochrome C reduced/min/μg protein | 11.5 | –
COc1cccc2c1-c1oc(CN(C)C)nc1C(=O)C2=O [Example 11, 2-((dimethylamino)methyl)-9-methoxynaphtho[2,1-d]oxazole-4,5-dione] | – | 6.6 | –
CC(C)c1nc2c(o1)-c1c(cccc1[N+](=O)[O-])C(=O)C2=O [Example 12, 2-isopropyl-9-nitronaphtho[2,1-d]oxazole-4,5-dione] | 379.2 nmol cytochrome C reduced/min/μg protein | 10.3 | –
CC(C)c1nc2c(o1)-c1c(N)cccc1C(=O)C2=O [Example 13] | 68.6 nmol cytochrome C reduced/min/μg protein | – | –
Cc1cc(=O)[nH]c2c1-c1oc(C(C)C)nc1C(=O)C2=O [Example 14, 2-isopropyl-9-methyloxazolo[5,4-f]quinoline-4,5,7(6H)-trione] | – | – | 104.2 nmol cytochrome C reduced/min/μg protein
CC(C)c1nc2c(o1)-c1cccc(O)c1C(=O)C2=O [Example 15, 6-hydroxy-2-isopropylnaphtho[2,1-d]oxazole-4,5-dione] | 20.8 nmol cytochrome C reduced/min/μg protein | 4.1 | –
COc1cccc2c1C(=O)C(=O)c1nc(C(C)(C)C)oc1-2 [Example 16, 2-tert-butyl-6-methoxynaphtho[2,1-d]oxazole-4,5-dione] | 4.2 nmol cytochrome C reduced/min/μg protein | – | –
CC(C)(C)c1nc2c(o1)-c1cccc(O)c1C(=O)C2=O [Example 17, 2-tert-butyl-6-hydroxynaphtho[2,1-d]oxazole-4,5-dione] | 7.4 nmol cytochrome C reduced/min/μg protein | – | –
CC(C)(C)c1nc2c(o1)-c1c(cccc1[N+](=O)[O-])C(=O)C2=O [Example 18] | 382.9 nmol cytochrome C reduced/min/μg protein | 13.5 | –
CC(C)(C)c1nc2c(o1)-c1c(N)cccc1C(=O)C2=O [Example 19] | 0.4 nmol cytochrome C reduced/min/μg protein | – | –
CC(C)c1nc2c(o1)-c1cccnc1C(=O)C2=O [Example 20, 2-isopropyloxazolo[5,4-f]quinoline-4,5-dione] | 221.0 nmol cytochrome C reduced/min/μg protein | 9.2 | –
COc1c([N+](=O)[O-])ccc2c1C(=O)C(=O)c1nc(C(C)(C)C)oc1-2 [Example 21, 2-tert-butyl-6-methoxy-7-nitronaphtho[2,1-d]oxazole-4,5-dione] | 40.3 nmol cytochrome C reduced/min/μg protein | – | –
COc1ccc([N+](=O)[O-])c2c1C(=O)C(=O)c1nc(C(C)(C)C)oc1-2 [Example 22, 2-tert-butyl-6-methoxy-9-nitronaphtho[2,1-d]oxazole-4,5-dione] | 102.5 nmol cytochrome C reduced/min/μg protein | – | –
CC(C)(C)c1nc2c(o1)-c1c([N+](=O)[O-])ccc(O)c1C(=O)C2=O [Example 23, 2-tert-butyl-6-hydroxy-9-nitronaphtho[2,1-d]oxazole-4,5-dione] | 60.9 nmol cytochrome C reduced/min/μg protein | – | –

Structure (SMILES) | NQO1 activity (5 μM, [nmol cytochrome C reduced/min/μg protein]) (NQO1 protein; [1]) | Lactate change amount within cells (nmol/mg cell) (cells) | NQO1 activity (5 μM, [nmol cytochrome C reduced/min/μg protein]) (NQO1 protein)
CC(C)(C)c1nc2c(o1)-c1c(O)cccc1C(=O)C2=O [Example 25, 2-tert-butyl-9-hydroxynaphtho[2,1-d]oxazole-4,5-dione] | 23.5 nmol cytochrome C reduced/min/μg protein | – | –
CC(C)(C)c1nc2c(o1)C(=O)C(=O)c1cc(Cl)ccc1-2 [Example 31, 2-tert-butyl-7-chloronaphtho[1,2-d]oxazole-4,5-dione] | – | 10.9 | –
CC(C)c1nc2c(o1)C(=O)C(=O)c1ncccc1-2 [Example 33] | 458.3 nmol cytochrome C reduced/min/μg protein | 10.2 | –
Cc1nc2c(o1)C(=O)C(=O)c1ncccc1-2 [Example 34] | 923.5 nmol cytochrome C reduced/min/μg protein | 8.9 | –
CC(C)c1nc2c(o1)-c1cnccc1C(=O)C2=O [Example 37, 2-isopropyloxazolo[4,5-h]isoquinoline-4,5-dione] | 845.7 nmol cytochrome C reduced/min/μg protein | 10.6 | –
CC(C)C(=O)Nc1ccc2c(c1)C(=O)C(=O)c1oc(C(C)(C)C)nc1-2 [Example 38, N-(2-tert-butyl-4,5-dioxo-4,5-dihydronaphtho[1,2-d]oxazol-7-yl)isobutyramide] | 63.4 nmol cytochrome C reduced/min/μg protein | 4.6 | –
O=C1C(=O)c2[nH]c(=O)oc2-c2ccccc21 [Example 39] | 30.1 nmol cytochrome C reduced/min/μg protein | 7.8 | –
CC(C)(C)c1nc2c(o1)C(=O)C(=O)c1cccnc1-2 [Example 40] | 527.4 nmol cytochrome C reduced/min/μg protein | 8.1 | –
O=C1C(=O)c2nc(CNc3ccc(F)cc3)oc2-c2ccccc21 [Example 43] | – | 4.4 | 263.0 nmol cytochrome C reduced/min/μg protein
O=C1C(=O)c2nc(CNc3ccc(Cl)cc3)oc2-c2ccccc21 [Example 44] | – | 5.4 | 239.0 nmol cytochrome C reduced/min/μg protein
O=C1C(=O)c2nc(CNc3cccc(Cl)c3)oc2-c2ccccc21 [Example 45] | – | 6.7 | 229.2 nmol cytochrome C reduced/min/μg protein
COc1ccc(NCc2nc3c(o2)-c2ccccc2C(=O)C3=O)cc1 [Example 46] | – | 7.4 | 208.0 nmol cytochrome C reduced/min/μg protein
CN(Cc1nc2c(o1)-c1ccccc1C(=O)C2=O)c1ccc(F)cc1 [Example 47] | 227.5 nmol cytochrome C reduced/min/μg protein | 7.6 | –
O=C1C(=O)c2nc(CNc3ccccc3)oc2-c2ccccc21 [Example 48] | – | 6.9 | 241.4 nmol cytochrome C reduced/min/μg protein
Cc1cc(F)ccc1NCc1nc2c(o1)-c1ccccc1C(=O)C2=O [Example 49] | 229.6 nmol cytochrome C reduced/min/μg protein | 6.0 | –
CC(=O)OCc1nc2c(o1)-c1ccccc1C(=O)C2=O [Example 50] | 244.3 nmol cytochrome C reduced/min/μg protein | 8.8 | –
